# Compound: C(C(=O)C(=O)O)Br [Bromopyruvate] + CC1(C)CCC(c2ccc(Cl)cc2)=C(CN2CCN(c3ccc(C(=O)NS(=O)(=O)c4ccc(N[C@H](CCN5CCOCC5)CSc5ccccc5)c(S(=O)(=O)C(F)(F)F)c4)cc3)CC2)C1 [Navitoclax] (partner 0.5 µM)
# Experiment: relative viability (nuclei count vs DMSO), 5 days (fraction); higher = more cells survive
# Settings: first compound 100 µM
# Method in brief: (§1)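 Relative viability equals treated-well nuclei counts divided by vehicle-well nuclei counts. Counts came from 4× images of lung cancer cell lines grown in 1536-well plates for 5 days after pin-tool dosing on the day after seeding. Dosing used one drug alone or a fixed anchor-drug dose plus five library-drug doses (not always all listed) in √10 steps, and values are medians of duplicate plates.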
row,Cell Line,relative viability
1,CAL-12T,1.08
2,NCI-H1651,1.2
3,EPLC-272H,1.34
4,NCI-H23,0.77
5,NCI-H1355,0.91
6,NCI-H322M,1.3
7,NCI-H1437,1.17
8,NCI-H1755,1.03
9,NCI-H2085,1.05
10,HCC-15,0.657
11,NCI-H1793,0.511
12,PC-3 [JPC-3],0.828
13,EKVX,1.07
14,LC-2-ad,0.476

# Compound: CC(O)(CS(=O)(=O)c1ccc(F)cc1)C(=O)Nc1ccc(C#N)c(C(F)(F)F)c1 [Bicalutamide] + COc1cc2c(Oc3ccc(NC(=O)C4(C(=O)Nc5ccc(F)cc5)CC4)cc3F)ccnc2cc1OCCCN1CCOCC1 [Foretinib] (partner 0.25 µM)
# Experiment: as above
# Settings: first compound 0.08 µM
# Method in brief: as §1
row,Cell Line,relative viability
1,HARA,0.931
2,HCC-78,0.566
3,NCI-H441,1.19
4,LCLC-97TM1,0.871
5,NCI-H2023,0.957
6,A-427,1.08
7,NCI-H460,1
8,NCI-H1734,0.925
9,NCI-H520,0.856
10,NCI-H2405,1.04
11,SW 1573,0.929
12,NCI-H1395,0.938
13,201T,1.01
14,NCI-H1915,0.753
15,HCC-827,1.09
16,LXF-289,0.955

row,Cell Line,relative viability
1,NCI-H2347,1.26
2,CAL-12T,1.11
3,NCI-H1651,0.89
4,EPLC-272H,0.606
5,NCI-H23,0.905
6,NCI-H1355,1.03
7,NCI-H322M,1.01
8,NCI-H1437,1.28
9,NCI-H1755,0.895
10,NCI-H2085,1.02
11,HCC-15,1.04
12,NCI-H1793,0.796
13,PC-3 [JPC-3],1.01
14,EKVX,0.749
15,LC-2-ad,0.969

# Same assay, conditions: first compound 0.253 µM
row,Cell Line,relative viability
1,HARA,0.836
2,HCC-78,0.543
3,NCI-H441,0.894
4,LCLC-97TM1,0.923
5,NCI-H2023,0.506
6,A-427,1.03
7,NCI-H460,1
8,NCI-H1734,0.731
9,NCI-H520,0.708
10,NCI-H2405,1.03
11,SW 1573,0.71
12,NCI-H1395,0.94
13,201T,1.02
14,NCI-H1915,1.06
15,HCC-827,0.881
16,LXF-289,0.91

row,Cell Line,relative viability
1,NCI-H2347,1.35
2,CAL-12T,1.04
3,NCI-H1651,0.734
4,EPLC-272H,0.841
5,NCI-H23,0.876
6,NCI-H1355,0.963
7,NCI-H322M,0.851
8,NCI-H1437,1.29
9,NCI-H1755,0.883
10,NCI-H2085,1.1
11,HCC-15,0.952
12,NCI-H1793,0.553
13,PC-3 [JPC-3],1.02
14,EKVX,0.757
15,LC-2-ad,0.829

# Same assay, conditions: first compound 0.8 µM
row,Cell Line,relative viability
1,HARA,1.17
2,HCC-78,0.55
3,NCI-H441,0.964
4,LCLC-97TM1,1.04
5,NCI-H2023,0.845
6,A-427,1.09
7,NCI-H460,1.17
8,NCI-H1734,1
9,NCI-H520,0.773
10,NCI-H2405,1.11
11,SW 1573,1.08
12,NCI-H1395,1.23
13,201T,0.892
14,NCI-H1915,1.11
15,HCC-827,1.04
16,LXF-289,0.939

row,Cell Line,relative viability
1,NCI-H2347,1.34
2,CAL-12T,1.32
3,NCI-H1651,1.01
4,EPLC-272H,0.817
5,NCI-H23,1.01
6,NCI-H1355,1.1
7,NCI-H322M,1.16
8,NCI-H1437,1.24
9,NCI-H1755,0.96
10,NCI-H2085,0.878
11,HCC-15,1.12
12,NCI-H1793,0.983
13,PC-3 [JPC-3],1.07
14,EKVX,0.95
15,LC-2-ad,1.02

# Same assay, conditions: first compound 2.53 µM
row,Cell Line,relative viability
1,HARA,0.897
2,HCC-78,0.52
3,NCI-H441,0.787
4,LCLC-97TM1,0.96
5,NCI-H2023,0.774
6,A-427,1.05
7,NCI-H460,0.963
8,NCI-H1734,0.809
9,NCI-H520,0.621
10,NCI-H2405,1.01
11,SW 1573,0.778
12,NCI-H1395,0.874
13,201T,1.09
14,NCI-H1915,1.13
15,HCC-827,1.01
16,LXF-289,0.985

row,Cell Line,relative viability
1,NCI-H2347,1.04
2,CAL-12T,1.13
3,NCI-H1651,0.884
4,EPLC-272H,0.679
5,NCI-H23,0.965
6,NCI-H1355,1.03
7,NCI-H322M,1.06
8,NCI-H1437,1.27
9,NCI-H1755,0.853
10,NCI-H2085,0.753
11,HCC-15,1.02
12,NCI-H1793,0.792
13,PC-3 [JPC-3],1.11
14,EKVX,0.752
15,LC-2-ad,1.03

# Compound: CC(O)(CS(=O)(=O)c1ccc(F)cc1)C(=O)Nc1ccc(C#N)c(C(F)(F)F)c1 [Bicalutamide] + CC1(C)CCC(c2ccc(Cl)cc2)=C(CN2CCN(c3ccc(C(=O)NS(=O)(=O)c4ccc(N[C@H](CCN5CCOCC5)CSc5ccccc5)c(S(=O)(=O)C(F)(F)F)c4)cc3)CC2)C1 [Navitoclax] (partner 0.5 µM)
# Experiment: as above
# Settings: first compound 0.08 µM
# Method in brief: as §1
row,Cell Line,relative viability
1,HARA,1.15
2,HCC-78,0.825
3,NCI-H441,0.551
4,LCLC-97TM1,0.558
5,NCI-H2023,1.08
6,A-427,0.986
7,NCI-H460,1.13
8,NCI-H1734,0.862
9,NCI-H520,0.97
10,NCI-H2405,0.948
11,SW 1573,0.908
12,NCI-H1395,1.1
13,201T,1.18
14,NCI-H1915,0.815
15,HCC-827,1.04
16,LXF-289,0.951

row,Cell Line,relative viability
1,NCI-H2347,0.853
2,CAL-12T,1.22
3,NCI-H1651,0.89
4,EPLC-272H,1.33
5,NCI-H23,0.86
6,NCI-H1355,1.06
7,NCI-H322M,1.3
8,NCI-H1437,1.1
9,NCI-H1755,0.98
10,NCI-H2085,1.19
11,HCC-15,0.757
12,NCI-H1793,0.516
13,PC-3 [JPC-3],0.867
14,EKVX,1.02
15,LC-2-ad,0.484

# Same assay, conditions: first compound 0.253 µM
row,Cell Line,relative viability
1,HARA,1.15
2,HCC-78,0.862
3,LCLC-97TM1,0.379
4,NCI-H2023,1.04
5,A-427,1.03
6,NCI-H460,1.1
7,NCI-H1734,0.719
8,NCI-H520,1.1
9,NCI-H2405,0.816
10,SW 1573,0.914
11,NCI-H1395,1.1
12,201T,1.24
13,NCI-H1915,0.76
14,HCC-827,0.971
15,LXF-289,0.952
16,NCI-H2347,0.795
17,CAL-12T,1.39
18,NCI-H1651,0.957
19,EPLC-272H,1.03
20,NCI-H23,0.642
21,NCI-H1355,0.919
22,NCI-H322M,1.18
23,NCI-H1437,1.17
24,NCI-H1755,0.956
25,NCI-H2085,1.17
26,HCC-15,0.685
27,NCI-H1793,0.353
28,PC-3 [JPC-3],0.775
29,EKVX,1.01
30,LC-2-ad,0.484

# Same assay, conditions: first compound 0.8 µM
row,Cell Line,relative viability
1,HARA,1.11
2,HCC-78,0.893
3,NCI-H441,0.622
4,LCLC-97TM1,0.573
5,NCI-H2023,1.06
6,A-427,0.98
7,NCI-H460,1.39
8,NCI-H1734,1.13
9,NCI-H520,1.16
10,NCI-H2405,0.987
11,SW 1573,1.17
12,NCI-H1395,1.55
13,201T,1.18
14,NCI-H1915,0.804
15,HCC-827,1.02
16,LXF-289,0.999

row,Cell Line,relative viability
1,NCI-H2347,0.848
2,CAL-12T,1.35
3,NCI-H1651,0.956
4,EPLC-272H,1.23
5,NCI-H23,0.949
6,NCI-H1355,0.928
7,NCI-H322M,1.28
8,NCI-H1437,1.14
9,NCI-H1755,1.02
10,NCI-H2085,1.22
11,HCC-15,0.761
12,NCI-H1793,0.479
13,PC-3 [JPC-3],0.869
14,EKVX,1.15
15,LC-2-ad,0.449

# Same assay, conditions: first compound 2.53 µM
row,Cell Line,relative viability
1,HARA,1.13
2,HCC-78,0.687
3,NCI-H441,0.518
4,LCLC-97TM1,0.572
5,NCI-H2023,0.945
6,A-427,0.927
7,NCI-H460,1.22
8,NCI-H1734,0.786
9,NCI-H520,1.13
10,NCI-H2405,0.925
11,SW 1573,1.16
12,NCI-H1395,1.1
13,201T,1.22
14,NCI-H1915,0.812
15,HCC-827,1.02
16,LXF-289,0.931

row,Cell Line,relative viability
1,NCI-H2347,0.774
2,CAL-12T,1.09
3,NCI-H1651,0.951
4,EPLC-272H,0.956
5,NCI-H23,0.754
6,NCI-H1355,0.983
7,NCI-H322M,1.22
8,NCI-H1437,1.11
9,NCI-H1755,0.961
10,NCI-H2085,0.902
11,HCC-15,0.712
12,NCI-H1793,0.512
13,PC-3 [JPC-3],0.91
14,EKVX,0.894
15,LC-2-ad,0.475

# From the supplement of paper PMC10307832
